Where two headings read alike, the source gives them in different places.
Experiments:
human Y4/PP1 receptor = human Y4/PP1 receptor (Homo sapiens, UniProt P50391); experiment: Human Y4/PP1 receptor binding assay ([125I]human PP, membrane protein); details: [125I]human PP, membrane protein; read-out: hNPY4 IC50
Summary of the method: (§1)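 Filtration binding with membrane protein and drug dilution, 2 h at room temperature with mixing, radioactivity counted by gamma or scintillation. Y2: 25 pM [125I]PYY in Krebs-Ringer bicarbonate pH 7.4 with 0.01% BSA, nonspecific by 1 μM NPY. Y4/PP1: 50 pM [125I]hPP in HEPES-buffered saline pH 7.4 with protease inhibitors and 0.3% BSA, nonspecific by 1 μM hPP.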

Y2 receptor = molecular target: T1, Y2 receptor (Homo sapiens, UniProt P49146); experiment: Y2 receptor binding assay ([125I]PYY, membrane protein); details: [125I]PYY, membrane protein; read-out: hNPY2 IC50
T1 sequence (P49146 1-381): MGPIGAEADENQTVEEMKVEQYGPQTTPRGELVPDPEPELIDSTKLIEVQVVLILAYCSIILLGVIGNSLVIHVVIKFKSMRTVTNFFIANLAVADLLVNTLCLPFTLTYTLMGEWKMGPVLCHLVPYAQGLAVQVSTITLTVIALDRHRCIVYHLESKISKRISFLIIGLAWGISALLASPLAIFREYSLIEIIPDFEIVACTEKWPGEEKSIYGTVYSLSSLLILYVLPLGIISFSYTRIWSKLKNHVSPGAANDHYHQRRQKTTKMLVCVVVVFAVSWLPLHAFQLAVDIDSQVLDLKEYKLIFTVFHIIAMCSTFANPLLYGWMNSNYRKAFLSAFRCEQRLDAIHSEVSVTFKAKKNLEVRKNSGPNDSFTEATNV
Summary of the method: as §1

Human NPY1 receptor = molecular target: T2, Human NPY1 receptor (Homo sapiens, UniProt P25929); experiment: Human NPY1 receptor binding assay ([125I]PYY, SK-N-MC cells); details: [125I]PYY, SK-N-MC cells; read-out: hNPYI IC50
T2 construct: host or cells: SK-N-MC cells
T2 sequence (P25929 1-384): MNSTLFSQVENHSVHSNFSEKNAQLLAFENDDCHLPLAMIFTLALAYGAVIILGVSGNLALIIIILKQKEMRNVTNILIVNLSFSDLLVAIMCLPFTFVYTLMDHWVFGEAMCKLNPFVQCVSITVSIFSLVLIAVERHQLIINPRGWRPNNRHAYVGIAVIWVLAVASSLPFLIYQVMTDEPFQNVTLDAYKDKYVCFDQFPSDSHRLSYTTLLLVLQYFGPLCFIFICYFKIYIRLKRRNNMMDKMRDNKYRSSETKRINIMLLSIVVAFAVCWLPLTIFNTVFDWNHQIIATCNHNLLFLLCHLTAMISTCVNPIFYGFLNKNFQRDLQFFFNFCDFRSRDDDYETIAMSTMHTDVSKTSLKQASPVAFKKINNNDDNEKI
Summary of the method: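 Confluent SK-N-MC cells preincubated 30 min at room temperature in serum-free DMEM/25 mM HEPES pH 7.3 with BSA, bacitracin and PMSF, then incubated 3 h at room temperature with compound and ~50 pM [125I]PYY. Nonspecific binding defined with 1 μM NPY; bound radioactivity counted after Triton X-100 lysis.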

Human NPY5 receptor = molecular target: T3, Human NPY5 receptor (Homo sapiens, UniProt Q15761); experiment: Human NPY5 receptor binding assay ([125I]PYY, membrane protein)
T3 sequence (Q15761 1-445): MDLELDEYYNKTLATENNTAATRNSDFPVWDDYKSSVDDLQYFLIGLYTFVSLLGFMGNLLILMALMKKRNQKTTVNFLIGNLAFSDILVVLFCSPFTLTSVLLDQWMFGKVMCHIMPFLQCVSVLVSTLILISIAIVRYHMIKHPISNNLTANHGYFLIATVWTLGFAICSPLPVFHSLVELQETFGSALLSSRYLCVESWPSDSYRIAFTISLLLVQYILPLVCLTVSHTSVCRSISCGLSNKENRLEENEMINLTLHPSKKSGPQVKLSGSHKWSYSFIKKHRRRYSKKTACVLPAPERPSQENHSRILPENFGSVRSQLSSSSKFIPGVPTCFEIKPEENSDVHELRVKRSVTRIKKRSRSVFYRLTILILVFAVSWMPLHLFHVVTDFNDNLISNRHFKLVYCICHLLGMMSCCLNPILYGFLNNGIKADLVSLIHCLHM
Summary of the method: (§2)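 Membrane protein incubated 2 h at room temperature with 75-100 pM porcine [125I]PYY and compound in pH 7.4 Tris buffer with salts, 0.1% BSA and bacitracin. Nonspecific binding with 1 μM PYY. Filtration, then gamma or scintillation counting.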

Rat NPY5 receptor = molecular target: T4, Rat NPY5 receptor (Rattus norvegicus, UniProt Q63634); experiment: Rat NPY5 receptor binding assay ([125I]PYY, membrane protein)
T4 sequence (Q63634 1-445): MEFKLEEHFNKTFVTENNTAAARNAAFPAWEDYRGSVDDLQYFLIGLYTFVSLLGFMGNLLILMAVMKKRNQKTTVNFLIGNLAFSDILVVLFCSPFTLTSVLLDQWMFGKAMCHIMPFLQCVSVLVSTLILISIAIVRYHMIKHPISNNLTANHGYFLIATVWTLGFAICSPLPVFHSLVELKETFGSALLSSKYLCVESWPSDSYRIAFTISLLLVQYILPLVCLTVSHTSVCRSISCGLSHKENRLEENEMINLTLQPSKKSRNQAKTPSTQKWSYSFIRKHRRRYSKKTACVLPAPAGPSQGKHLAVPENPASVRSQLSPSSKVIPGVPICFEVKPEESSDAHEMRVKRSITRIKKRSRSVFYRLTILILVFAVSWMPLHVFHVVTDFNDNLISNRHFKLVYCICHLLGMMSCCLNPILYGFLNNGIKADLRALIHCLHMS
Summary of the method: as §2

[1] = [125I]PYY, read-out: hNPY5 IC50
[2] = [125I]PYY, read-out: rNPY5 IC50

Chain of human Y4/PP1 receptor (P50391 whole entry): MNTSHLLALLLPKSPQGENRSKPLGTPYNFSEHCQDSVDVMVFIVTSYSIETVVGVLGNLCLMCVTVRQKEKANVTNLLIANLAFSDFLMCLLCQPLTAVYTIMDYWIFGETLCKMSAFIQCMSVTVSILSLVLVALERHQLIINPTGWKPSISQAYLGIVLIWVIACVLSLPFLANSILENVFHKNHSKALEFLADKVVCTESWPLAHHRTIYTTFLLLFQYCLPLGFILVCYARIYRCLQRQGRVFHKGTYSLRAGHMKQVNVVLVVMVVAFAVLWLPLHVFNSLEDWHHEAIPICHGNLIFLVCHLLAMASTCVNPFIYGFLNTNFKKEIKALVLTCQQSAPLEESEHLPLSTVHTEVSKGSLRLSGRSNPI

SMILES	IC50 (human Y4/PP1 receptor) [µM]	IC50 (Y2 receptor) [µM]	IC50 (Human NPY1 receptor) [µM]	melting point [°C]	IC50 (Human NPY5 receptor; [1]) [µM]	IC50 (Rat NPY5 receptor; [2]) [µM]	IC50 (Human NPY5 receptor; hNPY5 IC50, [125I]PYY) [µM]	IC50 (Rat NPY5 receptor; rNPY5 IC50, [125I]PYY) [µM]
O=C(CN1CCC2(CC1)C(=O)NCN2c1ccccc1)Nc1ccc(C2CCCCC2)cc1 [Compound 269, N-(4-Cyclohexyl-phenyl)-2-(4-oxo-1-phenyl-1,3,8-triaza-spiro[4.5]dec-8-yl)-acetamide]	> 5	> 5	> 5	117 to 118	0.79	–	–	–
CC(=O)NC1CCN(CC(=O)Nc2ccc(C3CCCCC3)cc2)C1.O=C(O)C(=O)O (stereo not drawn) [Compound 293, 2-(3-Acetylamino-pyrrolidin-1-yl)-N-(4-cyclohexyl-phenyl)-acetamide; compound with oxalic acid]	> 5	> 5	> 5	122	0.19	0.17	–	–
CC(C)OC(=O)c1ccc(NC(=O)CN2CCC(n3c(=O)[nH]c4ccccc43)CC2)cc1 [Compound 260]	> 5	> 5	> 5	168 to 177	0.014	–	–	–
O=C(CN1CCCCC1)Nc1ccc(C2CCCCC2)cc1 [Compound 252, N-(4-Cyclohexyl-phenyl)-2-(piperidine)-acetamide]	> 5	> 5	> 5	118 to 119	0.94	0.63	–	–
O=C(CN1CCC(n2c(=O)[nH]c3ccccc32)CC1)Nc1ccc(C=Cc2ccccc2)cc1 [Compound 262, 2-[4-(2-Oxo-2,3-dihydro-benzoimidazol-1-yl)-piperidin-1-yl]-N-(4-styryl-phenyl)-acetamide]	> 5	> 5	> 5	234 to 235	0.79	–	–	–
O=C(Nc1ccc(-c2ccccc2)cc1)C(c1ccccc1)N1CCC(n2c(=O)[nH]c3ccccc32)CC1 (stereo not drawn) [Compound 312, N-Biphenyl-4-yl-2-[4-(2-oxo-2,3-dihydro-benzoimidazol-1-yl)-piperidin-1-yl]-2-phenyl-acetamide]	> 5	> 5	> 5	207 to 210	–	–	0.032	0.024
CCOC(=O)Cc1ccc(NC(=O)CN2CCC(n3c(=O)[nH]c4ccccc43)CC2)cc1 [Compound 261, (4-{2 [4-(2-Oxo-2,3-dihydro-benzoimidazol-1-yl)-piperidin-1-yl]-acetylamino}-phenyl)-acetic acid ethyl ester]	> 5	> 5	> 5	164 to 165	0.59	–	–	–

The next lines start with results.

IC50 (human Y4/PP1 receptor) [µM]	IC50 (Y2 receptor) [µM]	IC50 (Human NPY1 receptor) [µM]	melting point [°C]	IC50 (Human NPY5 receptor; [1]) [µM]	IC50 (Rat NPY5 receptor; [2]) [µM]	SMILES	IC50 (Human NPY5 receptor; hNPY5 IC50, [125I]PYY) [µM]	IC50 (Rat NPY5 receptor; rNPY5 IC50, [125I]PYY) [µM]
> 5	> 5	> 5	144 to 148	0.13	0.068	CC(C(=O)Nc1ccc(C(C)(C)C)cc1)N1CCC(n2c(=O)[nH]c3ccccc32)CC1 (stereo not drawn) [Compound 279]	–	–
> 5	> 5	> 5	250 to 253	> 10	> 10	CN(C(=O)CN1CCC(n2c(=O)[nH]c3ccccc32)CC1)c1ccc(C2CCCCC2)cc1 [Compound 270, N-(4-Cyclohexyl-phenyl)-N-methyl-2-[4-(2-oxo-2,3-dihydro-benzoimidazol-1-yl)-piperidin-1-yl]-acetamide]	–	–
> 5	> 5	> 5	204	0.044	0.035	Cl.O=C(CN1CCC(n2c(=O)[nH]c3ccccc32)CC1)Nc1ccc2c(c1)C(=O)c1ccccc1-2 [Compound 306, 2-[4-(2-Oxo-2,3-dihydro-benzoimidazol-1-yl)-piperidin-1-yl]-N-(9-oxo-9H-fluoren-2-yl)-acetamide; hydrochloride]	–	–
> 5	> 5	> 5	102 to 103	5.4	2.9	O=C(CN1CCCCC1)Nc1ccc(-c2ccccc2)cc1 [Compound 271, N-Biphenyl-4-yl-2-piperidin-1-yl-acetamide]	–	–
> 5	> 5	> 5	176	0.0005	0.0004	O=C(CN1CCC(n2c(=O)[nH]c3ccccc32)CC1)Nc1ccc2c(c1)-c1ccccc1C2=O [Compound 266, 2-[4-(2-Oxo-2,3-dihydro-benzoimidazol-1-yl)-piperidin-1-yl]-N-(9-oxo-9H-fluoren-3-yl)-acetamide]	–	–
> 5	> 5	> 5	237 to 238	> 10	> 10	CC(C)OCCCNC(=O)CN1CCC(n2c(=O)[nH]c3ccccc32)CC1.Cl [Compound 283, N-(3-Isopropoxy-propyl)-2-[4-(2-oxo-2,3-dihydro-benzoimidazol-1-yl)-piperidin-1-yl]-acetamide; hydrochloride]	–	–
> 5	> 5	> 5	195 to 196	0.117	0.21	O=C(CN1CCN(c2ccccc2)CC1)Nc1ccc(C2CCCCC2)cc1 [Compound 272, N-(4-Cyclohexyl-phenyl)-2-(4-phenyl-piperazin-1-yl)-acetamide]	–	–
> 5	> 5	> 5	77 to 78	> 10	> 10	COCCNC(=O)CN1CCC(n2c(=O)[nH]c3ccccc32)CC1 [Compound 284, N-(2-Methoxy-ethyl)-2-[4-(2-oxo-2,3-dihydro-benzoimidazol-1-yl)-piperidin-1-yl]-acetamide]	–	–
> 5	–	> 5	132 to 133	7	6.5	O=C(CNC(c1ccccc1)c1ccccc1)Nc1ccc(C2CCCCC2)cc1 [Compound 273, 2-(Benzhydryl-amino)-N-(4-cyclohexyl-phenyl)-acetamide]	–	–
> 5	–	> 5	222 to 223	4.8	1.5	O=C(CN1CCC(NC(=O)Nc2ccccc2)CC1)Nc1ccc(C2CCCCC2)cc1 [Compound 274, N-(4-Cyclohexyl-phenyl)-2-[4-(3-phenyl-ureido)-piperidin-1-yl]-acetamide]	–	–

Reference: patent US6410792B1, “Amide derivatives and methods for using the same as selective neuropeptide Y receptor antagonists” (Bayer Corporation, priority 1997, dated 2002)
